# Assay results taken from patent US4795752A, “Amide derivatives and antiallergic agents containing the same” (Terumo Kabushiki Kaisha, priority 1985, dated 1989).
# Tested on: PCA reaction
# Assay: PCA reaction-inhibitory effects in rats (passive cutaneous anaphylaxis, oral administration, Evans Blue dye exudation)
# Format: in vivo, rats (female Sprague-Dawley)
# Settings: for Inhibition (%) mean ± SE: one hour before challenge; for ED50: Rattus norvegicus, from the percent inhibition-concentration graph, read-out: ID50 against exudation of the dye
# Procedure: DNP-ascaris (1 mg) prepared by combining a swine ascaris extract with 2,4-dinitrophenyl sulfate was mixed with 20 mg of aluminum hydroxide gel. The mixture was administered to rats subcutaneously on the back, and at the same time the animals were intraperitoneally given 2×10^10 dead Bordetella pertussis respectively. The same procedures were repeated after 14 days, and blood sample was obtained after 21 days to produce antisera.
# Female Sprague-Dawley strain rats (8 weeks old) were sensitized by subcutaneously administering 0.1 ml of 1:256 diluted antisera (titer=1024)respectively on the grained back. After 48 hours, groups of four rats were orally given the amide derivatives produced in the examples above at various concentrations. After one hour, the rats were challenged by intravenously administering a 0.5% physiological saline solution of Evans Blue containing 1 mg of the DNP-ascaris from the tail. After 30 minutes, the animal was sacrificed by bleeding and the portion of the skin with the dye exuded was cut off. The cut skin was treated with 1N--KOH solution, and the dye was extracted by adding 9 ml of 0.6N-phosphoric acid-acetone (5:13) mixture. The supernatant from centrifugal separation was measured for absorbancy at 620 nm to determine amount of the dye. Percent inhibition at each of the concentrations of the amide derivatives was calculated in comparison with amount of the dye for control group. 50% Inhibitory concentration (ID50) of the amide derivatives against exudation of the dye was determined from the percent inhibition-concentration graph. Results are shown in Table-I. Percent inhibition of tranilast, an antiallergic agent commercially available from Kissei Pharmaceutical Co., Ltd. under the trade name of Rizaben against PCA reaction was also shown in Table-I. As shown in Table-I, the amide derivatives of the invention produced high PCA reaction-inhibitory effects.
compound,measurement,setting,value
CCOC(=O)Oc1ccc(/C=C/C(=O)NCCN2CCC(OC(c3ccccc3)c3ccccc3)CC2)cc1OC(=O)OCC [Example 4],Inhibition (%) mean ± SE,3 mg/kg,22 ± 14%
same,Inhibition (%) mean ± SE,10 mg/kg,46 ± 10%
same,Inhibition (%) mean ± SE,30 mg/kg,68 ± 7%
same,ED50,,12 mg/kg
"CCOC(=O)Oc1ccc(/C=C/C(=O)NCCN2CCC(OC(c3ccccc3)c3ccccc3)CC2)cc1OC [Example 2, 1-[2-[3-(3-methoxy-4-ethoxycarbonyloxyphenyl)-2-propenoyl]-aminoethyl]-4-benzhydroxypiperidine]",Inhibition (%) mean ± SE,3 mg/kg,20 ± 15%
same,Inhibition (%) mean ± SE,10 mg/kg,41 ± 16%
same,Inhibition (%) mean ± SE,30 mg/kg,64 ± 5%
same,ED50,,15 mg/kg
"CCOC(=O)Oc1ccc(/C=C/C=C/C(=O)NCCN2CCC(OC(c3ccccc3)c3ccccc3)CC2)cc1OC [Example 1, 1-[2-[5-(3-methoxy-4-ethoxycarbonyloxyphenyl)-2,4-pentadienoyl]aminoethyl]-4-benzhydroxypiperidine]",Inhibition (%) mean ± SE,3 mg/kg,26 ± 15%
same,Inhibition (%) mean ± SE,10 mg/kg,51 ± 18%
same,Inhibition (%) mean ± SE,30 mg/kg,71 ± 6%
same,ED50,,10 mg/kg
"CCOC(=O)Oc1ccc(/C=C/C=C/C(=O)NCCCN2CCN(C(c3ccccc3)c3ccccc3)CC2)cc1OC [Example 3, 1-[3-[5-(3-methoxy-4-ethoxycarbonyloxyphenyl)-2,4-pentadienoyl]aminopropyl]-4-benzhydrylpiperazine]",Inhibition (%) mean ± SE,10 mg/kg,19 ± 14%
same,Inhibition (%) mean ± SE,30 mg/kg,38 ± 15%
same,Inhibition (%) mean ± SE,100 mg/kg,63 ± 5%
same,ED50,,55 mg/kg
"COc1ccc(/C=C/C(=O)Nc2ccccc2C(=O)O)cc1OC [Control, tranilast, reference compound]",Inhibition (%) mean ± SE,100 mg/kg,37 ± 8%
same,Inhibition (%) mean ± SE,200 mg/kg,40 ± 10%
same,Inhibition (%) mean ± SE,300 mg/kg,42 ± 5%
same,ED50,,> 300 mg/kg
"CCOC(=O)Oc1ccc(/C=C/C=C/C(=O)NCCN2CCC(OC(c3ccccc3)c3ccccc3)CC2)cc1OC(=O)OCC [Example 5, 1-[2-[5-(3,4-diethoxycarbonyloxyphenyl)-2,4-pentadienoyl]aminoethyl]-4-benzhydroxypiperidine]",Inhibition (%) mean ± SE,3 mg/kg,30 ± 16%
same,Inhibition (%) mean ± SE,10 mg/kg,55 ± 10%
same,Inhibition (%) mean ± SE,30 mg/kg,75 ± 4%
